Broadly, the IC50 is the point on the concentration scale where inhibition reaches its midpoint.

The text below walks through data of EP4311546A1, “COMBINATION THERAPY FOR MYOPATHIES” (Dynacure, priority 2022, dated 2024).

One assay deals with dynamin 2. The note with it: dynamin 2 inhibitor, value stated in the list of known inhibitors; cited from earlier work.
The test system of another assay is mitochondrial division. As to conditions: mitochondrial division inhibitor; cited from earlier work.
The test system of assay [1] is Mtm1^-/y mice. Put plainly: Lifespan / survival of Mtm1-/y mice (XL-CNM model). Type of assay: in vivo. As to conditions: at the end of the study (12 weeks old), ASO 3 mg/kg i.p. weekly from 4 weeks, tamoxifen 10 mg/kg of diet. As to the method: (§1) For experiments in mice, the ASOs were injected intraperitonally (i.p.) weekly from 4 weeks to 12 weeks of age at 3 mg/kg.
(§2) For experiments in mice, pellets of diet were supplemented with tamoxifen citrate (SAFE; […]) to achieve 10 mg of tamoxifen free base per kg of chow. Pellets of diet devoid of tamoxifen were used as a control (to be administered with ASO-ctrl).
(§3) Mtm1 deficient mice in the 129Pas genetic background were obtained from Dr. Laporte (IGBMC, Illkirch, France). Wild type males were bred with Mtm1^+/- heterozygous females. The Mtm1^+/y (wild type, i.e. WT) and Mtm1^-/y (mutant) males in the progeny were used in the experiments. The Mtm1^-/y knock-out mice reproduce the hallmarks of XL-CNM patients such as abnormal position of the organelles, defects in the localization of the nuclei and muscle atrophy, associated with progressive muscle weakness including respiratory weakness, leading to death between 6 and 14 weeks of age (Buj-Bello et al., Proc Natl Acad Sci USA, 2002; 99: 15060-15065; Al-Qusairi,et al, Proc Natl Acad Sci USA, 2009; 106: 18763-18768).
Animals were followed for up to 12 weeks old, with weekly recordings of clinical signs and survival. Treatments were started when disease started to manifest, i.e. at 4 weeks of age.
(§4) Weekly i.p. injections of 3 mg/kg of antisense were performed in the Mtm1^+/y and Mtm1^-/y mice, from 4 to 12 weeks of age. […]

In assay [2] the test system is Mtm1^-/y mice. Put plainly: Body weight of Mtm1-/y mice. Type of assay: in vivo. The note with it: at 12 weeks, mean ± SD, ASO 3 mg/kg i.p. weekly, tamoxifen 10 mg/kg of diet. The protocol: as §1, §2, §3
Weekly i.p. injections of 3 mg/kg of antisense were performed in the Mtm1^+/y and Mtm1^-/y mice, from 4 to 12 weeks of age. Alongside these injections, mice were fed pellets of diets containing tamoxifen citrate (10 mg/kg) or devoid of tamoxifen. […]

Assay [3] deals with Mtm1^-/y mice. Put plainly: Hanging test (whole-body strength) in Mtm1-/y mice. Type of assay: in vivo. As to conditions: at 12 weeks of age, mean ± SD, cut-off 60 seconds, ASO 3 mg/kg i.p. weekly, tamoxifen 10 mg/kg of diet. The protocol:
as §1, §2
as §3, with “18763-18768). […]” for “18763-18768).”
Whole-body strength of mice was evaluated using the hanging test. […] The latency time for the mouse to fall in the cage was measured, with a cut-off time of 60 seconds. […] The maximum hanging time was recorded. […]

Assay [4] deals with Mtm1^-/y mice. Put plainly: Disease Severity Score (DSS) in Mtm1-/y mice. The class given is in vivo. As to conditions: at 12 weeks old, score 0 (no disease) to 5 (most severe), ASO 3 mg/kg i.p. weekly, tamoxifen 10 mg/kg of diet. As to the method: as §1, §2, §3, §4
Disease Severity Score was calculated to monitor the clinical appearance of mice (n = 10 per group). […]

A further assay has as its system Dnm2 mRNA. Put plainly: Dnm2 mRNA expression by RT-qPCR in C2C12 cells. Type of assay: cell-based. As to conditions: C2C12 mouse myoblast cells, 24 hrs, 20 µM (with PBS control, or with ASO-ctrl). The protocol:
For experiments in mouse immortalized myoblasts (C2C12 cells), the ASOs were electroporated at 2 µM in 2 mm cuvettes, at 150V for 5 ms (one pulse) for 2 million cells in a volume of 400 µl PBS, or in 4mm cuvettes, at 300V for 5 ms (one pulse) for 4 million cells in a volume of 800 µl PBS. Table 2. Antisense oligonucleotides
For experiments conducted in mouse immortalized myoblasts (C2C12 cells), 4-hydroxytamoxifen (5 mg/ml solution, Sigma #SML-1666) was used. The stock solution at 13mM in ethanol:isopropanol (95:5) was diluted in cell culture medium to obtain a working concentration of 20 µM. For vehicle control cells (no treatment), ethanol:isopropanol (95:5) was added to the cell culture medium.
The […] immortalized myoblast cells were cultured in DMEM with 1g/l glucose (Gibco) with 20% FBS (Gibco) + 40 µg/ml Gentamycin (Gibco). The cells were electroporated with either PBS, ASO-ctrl or ASO-Dnm2 at 2 µM, and/or treated with 4-OH-tamoxifen at 20 µM in the cell culture medium, as described in 1.1. The experiment was done in duplicate wells, in 6-well plates. After 24 hrs of treatment, cells were collected and either RNA was extracted for RT-qPCR or protein was extracted for Western Blot. […]
On the technique in general: In qPCR the cycle at which signal appears reflects the starting amount.

Another assay concerns DNM2. Put plainly: DNM2 protein expression by Western blot in C2C12 cells. Type of assay: cell-based, mouse. As to conditions: C2C12 cells, 5, 10 or 20 µM (with PBS control, or with ASO-ctrl).

Take `O=C(NN=Cc1cc(O)c(O)cc1O)c1cc2ccccc2cc1O` [hydroxy-Dynasore, 3-hydroxy-N'-[(2,4,5-trihydroxyphenyl)methylidene]naphthalene-2-carbohydrazide]: in the assay with dynamin 2, the IC50 was 2.6 µM.
As to `COc1cc(-n2c(S)nc3ccccc3c2=O)c(Cl)cc1Cl` [m-divi 1, 3-(2,4-Dichloro-5-methoxyphenyl)-2-sulfanylquinazolin-4(3H)-one], in the assay on mitochondrial division, the IC50 was 10 µM.
In the case of `CC/C(=C(\c1ccccc1)c1ccc(OCCN(C)C)cc1)c1ccccc1` [tamoxifen, 2-[4-[(Z)-1,2-diphenylbut-1-enyl]phenoxy]-N,N-dimethylethanamine], the survival rate with Mtm1^-/y mice [1] came out at 70%. Besides, the body weight in the assay on Mtm1^-/y mice [2] is 15.3 ± 0.4 g. Besides, the “holding time (hanging test)” value in the assay with Mtm1^-/y mice [3] was 35.3 ± 24.4 s. The “Disease Severity Score (DSS), mean score” value in the assay with Mtm1^-/y mice [4] is 3.3. Besides, in the assay with Dnm2 mRNA, the “Dnm2 mRNA expression” value is given as “did not reduce”. Also, the DNM2 protein expression entry in the assay on DNM2 is given as “did not reduce”.
